Experimental data from patent publication US8552028B2, “8-phenylisoquinolines and pharmaceutical composition used in treatment for sepsis” (National Taiwan University, priority 2011, dated 2013).

What was measured:
[1] = test system: rat de-endothelial thoracic descending aorta; test: Serotonin induced rat thoracic aorta contraction (organ bath); design: species or system Sprague Dawley rats; settings: 0.03 or 0.1 μM in organ bath; cumulative serotonin 30 nM-0.1 mM; FIG. 10
Protocol: Thoracic aortae were obtained from adult male Sprague Dawley rats. The aortae were cleared of adhering periadventitial fat and cut into strips 3-4 mm in length. […] The tissue was incubated with warmed (37° C.), oxygenated (95% O2/5% CO2) Krebs-Henseleit solution (KBS, pH7.4) consisting of NaCl 118.2 mM, KCl 4.7 mM, KH2PO4 1.2 mM, MgSO4 1.2 mM, CaCl2·2H2O 1.9 mM, NaHCO3 25 mM and glucose 11.7 mM. Indomethacin (10 μM) was added to prevent the production of prostanoids. One end of the segment was fixed to the organ bath chamber, and the other to a force transducer (Type BG 25; Gould, Oxnard, Calif., USA) in which tension is recorded (model RS 3400 recorder, Gould). The preparations were allowed to equilibrate for at least 60 min under a passive tension of 1.5±0.2 g. Cumulative responses to serotonin (30 nM-0.1 mM) were examined for 20 min after addition of 0.03 or 0.1 μM compound 116 to the organ bath. Contraction responses were expressed as the percentage of maximum contraction.

[2] = test system: LPS induced endotoxaemia; test: Post-treatment of multiple doses on LPS induced endotoxaemia in mice model (survival); assay type: in vivo; settings: for survival curve versus vehicle control group: Log rank test, p<0.01
Protocol: 12 hours after intraperitoneal injection of lipopolysaccharide (LPS) 100 mg/kg, compound 116 100 μg/kg or 300 μg/kg were administrated intraperitoneally or subcutaneously every 6 hour till 48 hours after LPS insults. […] Survival curves were compared by the Log rank test, and 3 days survival rate was compared by the chi square test.

[3] = molecular target: 5-HT2A receptor (Homo sapiens, UniProt P28223); test: 5-HT2A receptor binding affinity; settings: for Ki: 5-HT2A receptor binding affinity; for 5-HT2A receptor binding affinity compared with sarpogrelate and ketanserin: comparison of Ki values, Table 8
From the text: The 5-HT2A Receptor Binding Affinity of Compounds 116, 157 and 167.
The 5-HT2A receptor binding affinity data are represented by Ki values.

[4] = test system: 5-HT induced amplification of platelet aggregation; test: Collagen-elicited aggregation of rat platelet rich plasma, amplified by serotonin (Lumi-aggregometer); assay type: cell-based, Spraque-Dawley rats; settings: rat PRP; for amplifying effects of serotonin on collagen induced platelet aggregation: collagen 3 μg/mL
Protocol: Blood samples were collected from male adult Spraque-Dawley rats, and platelet rich plasma (PRP) and platelet poor plasma (PPP) were obtained by centrifugation. Aggregation was elicited by adding collagen 3 μg/mL in PRP, and the aggregation response was recorded as the change of light transmission of PRP with Lumi-aggregometer. In FIG. 9a, collagen induced platelet aggregation, and the aggregation response was amplified by adding 10 μM serotonin in 30 seconds before adding collagen, as shown in FIG. 9b.

Sequence of 5-HT2A receptor (P28223 whole entry): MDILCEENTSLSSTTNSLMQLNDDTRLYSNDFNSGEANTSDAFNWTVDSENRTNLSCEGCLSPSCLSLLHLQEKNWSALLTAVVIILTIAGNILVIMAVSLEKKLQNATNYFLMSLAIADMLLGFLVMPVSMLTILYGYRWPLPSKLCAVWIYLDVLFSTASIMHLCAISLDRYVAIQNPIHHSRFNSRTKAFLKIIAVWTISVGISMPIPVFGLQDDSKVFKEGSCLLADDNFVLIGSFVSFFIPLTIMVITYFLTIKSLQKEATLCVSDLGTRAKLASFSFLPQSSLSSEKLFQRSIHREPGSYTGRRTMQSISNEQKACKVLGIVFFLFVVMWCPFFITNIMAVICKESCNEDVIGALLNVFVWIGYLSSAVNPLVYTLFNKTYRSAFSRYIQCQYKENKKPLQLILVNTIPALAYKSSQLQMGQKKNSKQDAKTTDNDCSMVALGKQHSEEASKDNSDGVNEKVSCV

Row | Compound | Ki [3] [nM] | 5-HT2A receptor binding affinity compared with sarpogrelate and ketanserin [3] | other results
1 | COc1ccc(-c2c(O)c(OC)cc3c2CN(CCc2ccccc2F)CC3)c(OC)c1 [Compound 116] | 3.47 | higher than those of the well-known 5-HT2A receptor antagonists | serotonin induced smooth muscle contraction [1]: inhibits serotonin induced smooth muscle contraction in a dose dependent manner; survival curve versus vehicle control group ([2]; 100 μg/kg i.p. or s.c. every 6 hour from 12 h till 48 hours after LPS 100 mg/kg i.p.): shifted the survive curve rightward significantly; survival curve versus vehicle control group ([2]; 300 μg/kg i.p. or s.c. every 6 hour from 12 h till 48 hours after LPS 100 mg/kg i.p.): shifted the survive curve rightward significantly; amplifying effects of serotonin on collagen induced platelet aggregation ([4]; 3 μg/mL added 30 seconds before 10 μM serotonin): blocked; platelet activation ([4]; FIGS. 9a-9d): Did not Exert Platelet Activation
2 | COc1cc2c(c(-c3ccccc3F)c1OC)CN(CCc1ccccc1)CC2 [Compound 157] | 2.21 | higher than those of the well-known 5-HT2A receptor antagonists | 
3 | COc1cc2c(c(-c3ccccc3F)c1OC)CN(CCc1ccccc1Cl)CC2 [Compound 167] | 0.119 | higher than those of the well-known 5-HT2A receptor antagonists | effect of post-treatment of multiple doses on LPS induced endotoxaemia ([2]; same method as for compound 116, FIG. 8): Protective Effects
4 | O=C(c1ccc(F)cc1)C1CCN(CCn2c(=O)[nH]c3ccccc3c2=O)CC1 [ketanserin, reference compound] |  |  | amplifying effects of serotonin on collagen induced platelet aggregation ([4]; 10 μM added 30 seconds before 10 μM serotonin): blocked
5 | COc1cccc(CCc2ccccc2OCC(CN(C)C)OC(=O)CCC(=O)O)c1 (centres unmarked) [sarpogrelate, reference compound] | 8.39 |  | 
